Test results as given in US6440964B1, “Compositions and methods for treating ophthalmic and otic infections” (priority 1998, dated 2002).
≈ marks a conversion by molar mass, not a printed value. Where two headings read alike, the source gives them in different places.

Assays:
[1] = tested on: Microbacterium otitidis; experiment: In vitro activity (MIC) by agar and broth dilution methods against clinical isolates; format: cell-based; settings: for MIC: read-out: minimum inhibitory concentration (MIC)
Protocol: (§1) The activity levels were determined as MIC (minimum inhibitory concentration) values. In order to compare the activity of the compounds of the present invention to other antibiotics, MIC values for representatives quinolones, aminoglycosides, β-lactams and other types of antibiotics were also determined. […] The MCC numbers (e.g., “MCC 10647”) represent separate clinical isolates of the two Microbacterium species tested.

[2] = tested on: Microbacterium alconae; experiment: as above; format: cell-based; settings: for MIC: read-out: minimum inhibitory concentration (MIC)
Protocol: as §1

[3] = tested on: S. epidermidis/methicillin resistant; experiment: MIC90 of Moxifloxacin for bacteria associated with ophthalmic, otic and nasal infections; format: cell-based
Source text: (§2) The concentrations of the antibiotics of formula (I) in the compositions of the present invention will vary depending on the intended use of the compositions (e.g., treatment of existing infections or prevention of post-surgical infections), and the relative antimicrobial activity of the specific antibiotic selected. The antimicrobial activity of antibiotics is generally expressed as the minimum concentration required to inhibit the growth of a specified pathogen. This concentration is also referred to as the “minimum inhibitory concentration” or “MIC”. The term “MIC90” refers to the minimum concentration of antibiotic required to inhibit the growth of ninety percent (90%) of the strains of a species. The concentration of an antibiotic required to totally kill a specified bacteria is referred to as the “minimum bactericidal concentration” or “MBC”.

[4] = tested on: S. aureus/quinolone resistant; experiment: as above; format: cell-based
Source text: as §2

[5] = tested on: P. aeruginosa; experiment: as above; format: cell-based
Source text: as §2

[6] = tested on: H influenzae/βlactamase negative; experiment: as above; format: cell-based
Source text: as §2

[7] = tested on: H. influenzae/β-lactamase positive; experiment: as above; format: cell-based
Source text: as §2

[8] = tested on: S. aureus/methicillin sensitive; experiment: as above; format: cell-based
Source text: as §2

[9] = tested on: S. pneumoniae/penicillin resistant; experiment: as above; format: cell-based
Source text: as §2

[10] = tested on: S. aureus/methicillin resistant; experiment: as above; format: cell-based
Source text: as §2

[11] = tested on: S. epidermidis/methicillin sensitive; experiment: as above; format: cell-based
Source text: as §2

[12] = tested on: S. pneumoniae/penicillin sensitive; experiment: as above; format: cell-based
Source text: as §2

[13] = tested on: M. otitidis; experiment: as above; format: cell-based, Microbacterium otitidis
Source text: as §2

[14] = tested on: M. alconae; experiment: as above; format: cell-based, Microbacterium alconae
Source text: as §2

Row | Compound | MIC ([1]; clinical isolate MCC 10647) | MIC ([1]; clinical isolate MCC 10810) | MIC ([1]; clinical isolate MCC 10990) | MIC ([1]; clinical isolate MCC 11495) | MIC ([1]; clinical isolate MCC 11676) | MIC ([2]; clinical isolate MCC 11316) | MIC ([2]; clinical isolate MCC 11558) | MIC ([2]; clinical isolate MCC 11639) | MIC ([2]; clinical isolate MCC 11653) | MIC ([2]; clinical isolate MCC 11699) | minimum inhibitory concentration (MIC) ([1]; clinical isolate MCC 10647) | minimum inhibitory concentration (MIC) ([1]; clinical isolate MCC 10810) | minimum inhibitory concentration (MIC) ([1]; clinical isolate MCC 10990) | minimum inhibitory concentration (MIC) ([1]; clinical isolate MCC 11495) | minimum inhibitory concentration (MIC) ([1]; clinical isolate MCC 11676) | minimum inhibitory concentration (MIC) ([2]; clinical isolate MCC 11316) | minimum inhibitory concentration (MIC) ([2]; clinical isolate MCC 11558) | minimum inhibitory concentration (MIC) ([2]; clinical isolate MCC 11639) | minimum inhibitory concentration (MIC) ([2]; clinical isolate MCC 11653) | minimum inhibitory concentration (MIC) ([2]; clinical isolate MCC 11699) | also measured
1 | CN(C)[C@@H]1C(O)=C(C(N)=O)C(=O)[C@@]2(O)C(O)=C3C(=O)c4c(O)cccc4[C@@](C)(O)[C@H]3C[C@@H]12 [Tetracycline] | 1 µg/mL (≈ 2.25 µM) | 1 µg/mL (≈ 2.25 µM) | 1 µg/mL (≈ 2.25 µM) | 1 µg/mL (≈ 2.25 µM) | 1 µg/mL (≈ 2.25 µM) | 1 µg/mL (≈ 2.25 µM) | 1 µg/mL (≈ 2.25 µM) | 1 µg/mL (≈ 2.25 µM) | 1 µg/mL (≈ 2.25 µM) | 1 µg/mL (≈ 2.25 µM) | – | – | – | – | – | – | – | – | – | – | –
2 | NC[C@H]1O[C@H](O[C@H]2[C@H](O)[C@@H](O[C@H]3O[C@H](CO)[C@@H](O)[C@H](N)[C@H]3O)[C@H](N)C[C@@H]2N)[C@H](N)C[C@@H]1O [Tobramycin] | 32 µg/mL (≈ 68.4 µM) | 4 µg/mL (≈ 8.56 µM) | 4 µg/mL (≈ 8.56 µM) | 4 µg/mL (≈ 8.56 µM) | 16 µg/mL (≈ 34.2 µM) | 16 µg/mL (≈ 34.2 µM) | 16 µg/mL (≈ 34.2 µM) | 16 µg/mL (≈ 34.2 µM) | 16 µg/mL (≈ 34.2 µM) | 16 µg/mL (≈ 34.2 µM) | – | – | – | – | – | – | – | – | – | – | –
3 | Gentamicin | – | – | – | – | – | – | – | – | – | – | 8.0 micrograms per milliliter | 4.0 micrograms per milliliter | 4.0 micrograms per milliliter | 16 micrograms per milliliter | 4.0 micrograms per milliliter | 2.0 micrograms per milliliter | 2.0 micrograms per milliliter | 2.0 micrograms per milliliter | 2.0 micrograms per milliliter | 2.0 micrograms per milliliter | –
4 | Moxifloxacin | – | – | – | – | – | – | – | – | – | – | – | – | – | – | – | – | – | – | – | – | MIC90 [3]: 4.0 µg/mL; MIC90 [4]: 4.0 µg/mL; MIC90 [5]: 8.0 µg/mL; MIC90 [6]: 0.06 µg/mL; MIC90 [7]: 0.06 µg/mL; MIC90 [8]: 0.13 µg/mL; MIC90 [9]: 0.25 µg/mL; MIC90 [10]: 4.0 µg/mL; MIC90 [11]: 0.25 µg/mL; MIC90 [12]: 0.25 µg/mL; MIC90 [13]: 2.0 µg/mL; MIC90 [14]: 0.25 µg/mL
5 | Neomycin | – | – | – | – | – | – | – | – | – | – | 8.0 micrograms per milliliter | 2.0 micrograms per milliliter | 2.0 micrograms per milliliter | 8.0 micrograms per milliliter | 2.0 micrograms per milliliter | 1.0 micrograms per milliliter | 1.0 micrograms per milliliter | 1.0 micrograms per milliliter | 1.0 micrograms per milliliter | 1.0 micrograms per milliliter | –
6 | Polymyxin B | – | – | – | – | – | – | – | – | – | – | 1040 micrograms per milliliter | 260 micrograms per milliliter | 260 micrograms per milliliter | 1040 micrograms per milliliter | 16 micrograms per milliliter | 32.5 micrograms per milliliter | 32.5 micrograms per milliliter | 16 micrograms per milliliter | 16 micrograms per milliliter | 16 micrograms per milliliter | –
